Experimental data as given in US9315451B2, “Tetracycline compounds” (priority 2009, dated 2016).
Like-named read-outs stand apart in the source and are kept apart here.

Legend:
[1] = system: tetracycline-resistant tet(M) S. pneumoniae strain SP160; assay: Neutropenic respiratory infection model for S. pneumoniae (murine lung infection); format: in vivo; conditions: neutropenic BALB/c mice, SP160 intranasal, 30 mg/kg orally at 2 and 12 hours post-infection, lung CFU at 24 hours
Procedure: Neutropenic Respiratory Infection Models for S. pneumoniae
Compounds were tested in a neutropenic BALB/c murine model of lung infection challenged with tetracycline-resistant tet(M) S. pneumoniae strain SP160. Mice were made neutropenic by pre-treatment with cyclophosphamide and infected with SP160 via intranasal administration. Mice were dosed orally with 30 mg/kg compound at 2 and 12 hours post-infection. At 24 hours following initiation of treatment, mice were euthanized and bacterial reduction in the lung was quantified by plating lung homogenates. Data was recorded as log10 reduction in lung colony forming units versus an untreated control group.

[2] = system: S. aureus Smith (ATCC 13709); assay: Mouse systemic infection (septicemia) model, S. aureus Smith; format: in vivo; conditions: Staphylococcus aureus, CD-1 female mice; for responders at 3 mg/kg: ATCC13709, iv, IV 3 mg/kg one hour post infection, read-out: SA Smith septicemia survival IV (3 mg/kg); for responders at 3 mg/kg / responders at 30 mg/kg: 48 h, survival at 48 hours; for responders at 30 mg/kg: ATCC13709, po, PO 30 mg/kg one hour post infection, read-out: SA Smith septicemia survival PO (30 mg/kg); for ED50: ATCC13709, dose that prevents 50% of the mice from death, 48 hours
Summary of the method: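 Female CD-1 mice (18-22 g) infected IP with an inoculum lethal to all within 24–48 h. Compound given 1 h post-infection IV ([…]) or PO ([…]), typically six mice per dose group; survival followed for 48 h and PD50 (mg/kg) derived from 48 h survival.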

[3] = system: Uropathogenic E. coli EC200; assay: Murine kidney infection model, uropathogenic E. coli EC200; format: in vivo; conditions: BALB/c mice; for log reduction at 2 mg/kg: PO 2 mg/kg at 12 and 24 hours post infection; for EC200 UTI IV, log10 reduction in CFUs in the kidney versus untreated controls: @ 5 mpk in cells (column head 3 mg/kg)
Procedure: (§1) Kidney Infection Models for Uropathogenic E. coli EC200 and K. pneumoniae ESBL Isolate KP453
Compounds were tested in a BALB/c murine kidney infection model challenged with tetracycline-resistant E. coli strain uropathogenic […] via intravenous injection. […] For IV administration test compound was dosed at 3 mg/kg. Thirty-six hours following initiation of treatment, mice were euthanized and bacterial reduction in the kidney was quantified by plating kidney homogenates. Results are reported in Table D as log10 reduction in colony forming units (CFUs) in the kidney versus untreated controls (receiving no test compound).

[4] = system: K. pneumoniae ESBL Isolate KP453; assay: Murine kidney infection model, K. pneumoniae ESBL isolate KP453; format: in vivo; conditions: BALB/c mice; for log reduction at 50 mg/kg: Klebsiella pneumoniae, po, 36 h, PO 50 mg/kg at 9 and 24 hours post infection, read-out: KP453 ESBL UTI PO, log10 reduction in CFUs in the kidney versus untreated controls; for KP453 ESBL UTI IV, log10 reduction in CFUs in the kidney versus untreated controls: IV 20 mg/kg
Procedure: as §1
Compounds were also tested in BALB/c murine kidney infection model challenged with levofloxacin-resistant, ESBL^+ strain KP453 via intravenous injection with 2% carageenen. At 9 and 24 hours post infection mice were treated orally with 50 mg/kg of test compound. For IV administration, test compounds were dosed at 20 mg/kg. At 36 hours following initiation of treatment, mice were euthanized and bacterial reduction in the kidney was quantified by plating homogenates. Results are reported in Table D as log10 reduction in colony forming units (CFUs) in the kidney versus untreated controls (receiving no test compound).

[5] = system: tetracycline-resistant tet(M) MRSA strain SA191; assay: Neutropenic respiratory infection model for MRSA (murine lung infection); format: in vivo, Staphylococcus aureus; conditions: neutropenic BALB/c mice, SA191 intranasal, 50 mg/kg orally at 2 and 12 hours, lung CFU at 24 hours
Procedure: Neutropenic Respiratory Infection Model for MRSA
Compounds were tested in a neutropenic BALB/c murine model of lung infection challenged with a tetracycline-resistant tet(M) MRSA strain SA191 infected via intranasal administration. At 2 and 12 hours mice were dosed orally with 50 mg/kg compound. At 24 hours following initiation of treatment, mice were euthanized and bacterial reduction in the lung was quantified by plating lung homogenates. Data was recorded as log10 reduction in lung colony forming units versus an untreated control group.

[6] = Pharmacokinetic studies in rats; format: in vivo; conditions: rat, plasma, male Sprague Dawley rats, fasted; for clearance: read-out: Cl, IV Rat PK; for bioavailability: oral 10 mg/kg vs IV 1 mg/kg, read-out: % F (oral bioavailability), Oral Rat PK; for Cmax: read-out: Cmax, IV Rat PK
Procedure: Pharmacokinetic Studies in Rats Test compounds were evaluated in fasted (no food for 18 hours prior to dosing) male Sprague Dawley rats (3 animals per group) by administration of 1 mg/kg intravenously into the jugular vein and […] by oral gavage. Ten plasma samples were drawn for each dosing route up to 24 hours into heparin-coated vacutainer tubes. The plasma concentrations of the test compounds were quantified by LC/MS/MS using an internal standards. WinNONLIN was used to determine PK parameters ±standard deviation (AUC, Cmax, CL, Vss and % oral bioavailabilty (% F) and are set forth in Table F.

Monkey PK = format: in vivo; conditions: cynomolgus monkey, plasma, cynomolgus monkeys; for bioavailability: PO 10 mg/kg vs IV 1 mg/kg, read-out: % F (oral bioavailability), monkey
Procedure: Compounds S24-9-23 and S16-10-161 were evaluated in 3 non-naïve cynomolgus monkeys. Each animal received a single IV dose of 1 mg/kg and after a 7-day washout, received a single PO dose of 10 mg/kg. Nine to ten plasma samples were drawn for each dosing route up to 24 hours into heparin-coated vacutainer tubes. Dose formulations were verified with a 5-point calibration curve. The plasma concentration of the compound was quantified by LC/MS/MS using an internal standard.

[7] = Escherichia coli, po, 36 h, read-out: EC200 UTI PO, log10 reduction in CFUs in the kidney versus untreated controls
[8] = PO, read-out: SA Smith septicemia PD50 PO
[9] = IV 1 mg/kg, read-out: AUC, IV Rat PK
[10] = oral gavage 10 mg/kg, read-out: AUC, Oral Rat PK
[11] = single IV dose of 1 mg/kg, read-out: AUC, IV, monkey
[12] = single PO dose of 10 mg/kg, read-out: AUC, oral, monkey
[13] = single PO dose of 10 mg/kg, read-out: Cmax, oral, monkey
[14] = IV, read-out: SA Smith septicemia PD50 IV

| Structure (SMILES) | Bacterial Reduction in the Lung (Log10 change from 24 hour control) [1] [Log10] | responders at 3 mg/kg [2] [%] | responders at 30 mg/kg [2] [%] | log reduction at 2 mg/kg [3, 7] | log reduction at 50 mg/kg [4] | Bacterial Reduction in the Lung (Log10 change from 24 hour control) [5] [Log10] | EC200 UTI IV, log10 reduction in CFUs in the kidney versus untreated controls [3] | KP453 ESBL UTI IV, log10 reduction in CFUs in the kidney versus untreated controls [4] [log10] | ED50 [2, 8] [mg/kg] | clearance ([6]; IV 1 mg/kg) [L/h/kg] | bioavailability [6] [%] | AUC [6, 9] [µg·h/mL] | Cmax ([6]; IV 1 mg/kg) [µg/mL] | AUC [6, 10] [µg·h/mL] | other results |
| --- | --- | --- | --- | --- | --- | --- | --- | --- | --- | --- | --- | --- | --- | --- | --- |
| C[C@H]1CC[C@H](C)N1Cc1cc(O)c2c(c1Cl)C[C@H]1C[C@H]3[C@H](N(C)C)C(O)=C(C(N)=O)C(=O)[C@@]3(O)C(O)=C1C2=O [Compound S15-13-223] | −0.12 | 100 | 100 | 2.27 | 1.32 | – | – | – | – | – | – | – | – | – | – |
| COc1c(CN(C)C(C)(C)C2CC2)cc(O)c2c1C[C@H]1C[C@H]3[C@H](N(C)C)C(O)=C(C(N)=O)C(=O)[C@@]3(O)C(O)=C1C2=O [S24-9-21] | −0.89 | 100 | 100 | 2.3 | 2.16 | −1.98 | @ 5 mpk −4.09 log10 | −2.87 | – | – | – | – | – | – | – |
| CN(C)[C@@H]1C(O)=C(C(N)=O)C(=O)[C@@]2(O)C(O)=C3C(=O)c4c(O)c(N)c(CN5CCCCCC5)c(Cl)c4C[C@H]3C[C@@H]12 [Compound S29-2-4] | – | 100 | 83 | – | – | −1.29 | – | – | – | – | – | – | – | – | – |
| CN(C)[C@@H]1C(O)=C(C(N)=O)C(=O)[C@@]2(O)C(O)=C3C(=O)c4c(O)cc(CN5CCCCCC5)c(Cl)c4C[C@H]3C[C@@H]12 [Compound S15-13-188] | −0.22 | 100 | 100 | – | 1.55 | – | – | – | 8.3 | – | – | – | – | – | log reduction at 3 mg/kg ([3]; Escherichia coli, po, 36 h, PO @ 3 mpk, read-out: EC200 UTI PO, log10 reduction in CFUs in the kidney versus untreated controls): 3.48 |
| CN(C)c1c(CN2CCCCC2)cc(O)c2c1C[C@H]1C[C@H]3[C@H](N(C)C)C(O)=C(C(N)=O)C(=O)[C@@]3(O)C(O)=C1C2=O [Compound S16-10-161] | – | 100 | 100 | 1.85 | 1.04 | – | @ 5 mpk −3.99 log10 | −3.09 | – | 0.768 | 31.6 | 1.31 | 0.689 | 4.44 | bioavailability (Monkey PK): 42.7%; clearance (Monkey PK; single IV dose of 1 mg/kg, read-out: Cl, IV, monkey (printed C1, mL/hr) (converted)): 184 mL/h; Vd (Monkey PK; single IV dose of 1 mg/kg, read-out: Vdss, IV, monkey (unit inferred)): 4.05 L/kg; AUC (Monkey PK; [11]): 5.68 µg·h/mL; Cmax (Monkey PK; single IV dose of 1 mg/kg, read-out: Cmax, IV, monkey (unit inferred)): 0.861 µg/mL; AUC (Monkey PK; [12]): 26 µg·h/mL; Cmax (Monkey PK; [13]): 0.982 µg/mL |
| CCC(C)(C)N(C)Cc1cc(O)c2c(c1F)C[C@H]1C[C@H]3[C@H](N(C)C)C(O)=C(C(N)=O)C(=O)[C@@]3(O)C(O)=C1C2=O [Compound S2-4-28] | −0.06 | 100 | 100 | – | – | – | – | – | 3 | 1.06 | 44.7 | 0.97 | 0.17 | 4.38 | ED50 [2, 14]: 0.62 mg/kg |
| C[C@@H](NCc1cc(O)c2c(c1N(C)C)C[C@H]1C[C@H]3[C@H](N(C)C)C(O)=C(C(N)=O)C(=O)[C@@]3(O)C(O)=C1C2=O)C(C)(C)C [Compound S16-10-79] | −4.31 | 100 | 100 | – | – | −1.27 | – | – | – | – | – | – | – | – | – |
| COc1c(CN2CCCCC2)cc(O)c2c1C[C@H]1C[C@H]3[C@H](N(C)C)C(O)=C(C(N)=O)C(=O)[C@@]3(O)C(O)=C1C2=O [Compound S24-9-23] | – | 100 | 100 | 2.99 | 2.93 | – | @ 5 mpk −4.34 log10 | −2.95 | – | 0.556 | 12.2 | 1.83 | 0.795 | 2.23 | bioavailability (Monkey PK): 36.8%; clearance (Monkey PK; single IV dose of 1 mg/kg, read-out: Cl, IV, monkey (converted)): 0.144 L/h/kg; Vd (Monkey PK; single IV dose of 1 mg/kg, read-out: Vdss, IV, monkey): 3.4 L/kg; AUC (Monkey PK; [11]): 7.07 µg·h/mL; Cmax (Monkey PK; single IV dose of 1 mg/kg, read-out: Cmax, IV, monkey): 1.37 µg/mL; AUC (Monkey PK; [12]): 22.8 µg·h/mL; Cmax (Monkey PK; [13]): 1.35 µg/mL |
| CN(C)[C@@H]1C(O)=C(C(N)=O)C(=O)[C@@]2(O)C(O)=C3C(=O)c4c(O)cc(CN5CCCC5(C)C)c(F)c4C[C@H]3C[C@@H]12 [Compound S2-4-12] | – | 100 | 100 | 2.51 | 2.15 | – | – | – | 2.1 | 1.28 | 14.6 | 0.754 | 0.126 | 1.16 | ED50 [2, 14]: 0.69 mg/kg |
